One assay has as its system HT29 cells. Description: CyQuant cell proliferation activity test, HT29. Format: cell-based. Conditions: Homo sapiens, HT-29, 72 h, HT29 2000 cells per well, 3 days incubation, initial concentration 3000 nM, IC50 by XLFIT, read-out: HT-29 Cell Viability_IC50_nM. The method, boiled down: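 HT29 cells (2000/well, RPMI-1640 with 10% FBS) were plated overnight, then exposed to compound for 3 days at 37 °C, 5% CO2. Dosing was 9 concentrations, 3-fold dilutions from 3000 nM, in 0.20% DMSO. Proliferation was read with CyQuant reagent after 1 h, and IC50 derived from the curves.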

A further assay relates to OVCAR3 cells. Nature of the assay: Cell proliferation activity test, OVCAR3 (CyQUANT Direct). Conditions: Homo sapiens, OVCAR-3, 72 h, 3 days incubation, CyQUANT fluorescence detection, read-out: OVCAR-3 Cell Viability_IC50_nM. Format: cell-based. The method, boiled down: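 OVCAR3 cells seeded overnight, then exposed to compounds at 0-10 μM final (0.20% DMSO) for 3 days at 37° C. Cell number read by CyQUANT Direct fluorescence after 60 min at 37° C.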

The target in assay [1] is T1, Human KIF18A (amino acid sequence 1-417) (Homo sapiens, UniProt Q8NI77).
T1 construct: purchased Viva Biotech (Shanghai) Ltd
T1 sequence (Q8NI77 1-417): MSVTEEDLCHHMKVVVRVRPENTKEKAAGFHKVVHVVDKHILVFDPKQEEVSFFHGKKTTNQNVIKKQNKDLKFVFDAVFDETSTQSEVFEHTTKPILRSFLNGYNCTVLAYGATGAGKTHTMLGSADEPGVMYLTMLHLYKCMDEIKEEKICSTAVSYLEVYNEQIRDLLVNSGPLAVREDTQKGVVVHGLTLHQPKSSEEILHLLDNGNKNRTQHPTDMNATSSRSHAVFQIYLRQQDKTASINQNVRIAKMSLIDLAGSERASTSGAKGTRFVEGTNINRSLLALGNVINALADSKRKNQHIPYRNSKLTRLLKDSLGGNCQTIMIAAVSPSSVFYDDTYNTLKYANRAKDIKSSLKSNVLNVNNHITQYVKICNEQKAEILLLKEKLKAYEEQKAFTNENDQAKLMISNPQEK
T1 sequence (Q2XVP4 whole entry partner): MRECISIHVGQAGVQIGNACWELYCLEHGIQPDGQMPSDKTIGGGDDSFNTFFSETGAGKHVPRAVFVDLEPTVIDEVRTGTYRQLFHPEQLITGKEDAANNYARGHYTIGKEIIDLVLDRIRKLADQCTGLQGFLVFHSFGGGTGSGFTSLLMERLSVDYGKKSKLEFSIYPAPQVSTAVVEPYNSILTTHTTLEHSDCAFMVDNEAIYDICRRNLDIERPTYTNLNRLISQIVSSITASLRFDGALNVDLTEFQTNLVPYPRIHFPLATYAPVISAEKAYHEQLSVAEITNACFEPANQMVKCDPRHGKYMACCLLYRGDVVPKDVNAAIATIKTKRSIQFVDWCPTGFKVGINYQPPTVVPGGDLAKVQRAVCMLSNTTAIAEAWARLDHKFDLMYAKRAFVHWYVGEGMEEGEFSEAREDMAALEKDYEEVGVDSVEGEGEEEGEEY
T1 sequence (P02554 whole entry partner): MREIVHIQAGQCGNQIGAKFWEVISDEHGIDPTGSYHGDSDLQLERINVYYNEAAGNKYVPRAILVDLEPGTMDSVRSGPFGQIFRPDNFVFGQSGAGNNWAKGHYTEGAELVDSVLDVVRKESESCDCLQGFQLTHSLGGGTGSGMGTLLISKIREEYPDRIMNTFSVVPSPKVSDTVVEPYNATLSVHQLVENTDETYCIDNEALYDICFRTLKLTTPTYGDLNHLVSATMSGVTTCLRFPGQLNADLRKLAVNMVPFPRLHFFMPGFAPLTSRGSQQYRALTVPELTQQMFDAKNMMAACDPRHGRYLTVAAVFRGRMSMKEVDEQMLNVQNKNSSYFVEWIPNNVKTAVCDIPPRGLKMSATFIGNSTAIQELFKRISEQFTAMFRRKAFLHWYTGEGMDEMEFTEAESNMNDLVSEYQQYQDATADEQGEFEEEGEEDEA
Nature of the assay: Enzyme activity detection experiment (ADP-Glo, KIF18A with tubulin and ATP). In kind it is biochemical. As to conditions: tubulin 60 μg/mL, ATP 25 μM, KIF18A protein 2.5 nM, 120 minutes at ambient temperature, ADP-Glo chemiluminescence. The method, boiled down:
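KIF18A (2.5 nM) was incubated with tubulin (60 μg/mL as added), ATP (25 μM) and serially diluted compound for 120 min at ambient temperature. ADP formed was detected by ADP-Glo: reagent for 30 min, then detection reagent for 30 min in the dark, with chemiluminescence read-out.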
Background: In ADP-Glo the light output rises with the ADP produced.

Consider `CNc1cc(-c2cn(-c3ccc(NS(=O)(=O)CCO)cc3N3CCC4(CC3)CC4)nn2)nc(N2CCC(F)(F)CC2)n1` [Example 56, N-(3-{6-azaspiro[2.5]octan-6-yl}-4-{4-[2-(4,4-difluoropiperidin-1-yl)-6-(methylamino)pyrimidin-4-yl]-1H-1,2,3-triazol-1-yl}phenyl)-2-hydroxyethane-1-sulfonamide], for which the IC50 in the assay on HT29 cells came to 8 nM; in the assay with OVCAR3 cells, 9 nM; in assay [1], 110 nM.

As for `O=S(=O)(CCO)Nc1ccc(-n2cc(-c3cc(NCCO)nc(N4CCC(F)(F)CC4)n3)nn2)c(N2CCC3(CC2)CC3)c1` [Example 57, N-(3-{6-azaspiro[2.5]octan-6-yl}-4-{4-[2-(4,4-difluoropiperidin-1-yl)-6-[(2-hydroxyethyl)amino]pyrimidin-4-yl]-1H-1,2,3-triazol-1-yl}phenyl)-2-hydroxyethane-1-sulfonamide], the IC50 in the assay with HT29 cells was 4.5 nM; in the assay on OVCAR3 cells, 8 nM; in assay [1], 72 nM.

Take `O=S(=O)(CCO)Nc1ccc(-n2cc(-c3cc(NC4CCOCC4)nc(N4CCC(F)(F)CC4)n3)nn2)c(N2CCC3(CC2)CC3)c1` [Example 58, N-(3-{6-azaspiro[2,5]octan-6-yl}-4-{4-[2-(4,4-difluoropiperidin-1-yl)-6-[(oxan-4-yl)amino]pyrimidin-4-yl]-1H-1,2,3-triazol-1-yl}phenyl)-2-hydroxyethane-1-sulfonamide]: the values for the IC50 (in the assay with HT29 cells; in the assay on OVCAR3 cells; in assay [1]) were 286 nM, 224 nM and 779 nM, respectively.

In the case of `O=S(=O)(CCO)Nc1ccc(-n2cc(-c3cc(NCc4ccccn4)nc(N4CCC(F)(F)CC4)n3)nn2)c(N2CCC3(CC2)CC3)c1` [Example 59, N-(3-{6-azaspiro[2.5]octan-6-yl}-4-{4-[2-(4,4-difluoropiperidin-1-yl)-6-{[(pyridine-2-yl)methyl]amino}pyrimidin-4-yl]-1H-1,2,3-triazol-1-yl}phenyl)-2-hydroxyethane-1-sulfonamide], the IC50 is 34 nM in the assay on HT29 cells, 26 nM in the assay with OVCAR3 cells and 437 nM in assay [1].

As to `O=S(=O)(CCO)Nc1ccc(-n2cc(-c3cc(NCc4cccnc4)nc(N4CCC(F)(F)CC4)n3)nn2)c(N2CCC3(CC2)CC3)c1` [Example 60, N-(3-{6-azaspiro[2.5]octan-6-yl}-4-{4-[2-(4,4-difluoropiperidin-1-yl)-6-{[(pyridine-3-yl)methyl]amino}pyrimidin-4-yl]-1H-1,2,3-triazol-1-yl}phenyl)-2-hydroxyethane-1-sulfonamide], the IC50 in the assay on HT29 cells came to 41 nM; in the assay on OVCAR3 cells, 29 nM; in assay [1] it was 433 nM.

Regarding `COc1cc(-c2cn(-c3ccc(NS(=O)(=O)CCO)cc3N3CCC4(CC3)CC4)nn2)cc(N2CCC(F)(F)CC2)n1` [Example 62, N-(4-(4-(2-(4,4-difluoropiperidin-1-yl)-6-methoxypyridin-4-yl)-1H-1,2,3-triazol-1-yl)-3-(6-azaspiro[2.5]octan-6-yl)phenyl)-2-hydroxyethane-1-sulfonamide], the IC50 turned out to be 60 nM in the assay with HT29 cells, 59 nM with OVCAR3 cells and 272 nM in assay [1].

As to `COc1cc(-c2cn(-c3ccc(NS(=O)(=O)CCO)cc3N3CCC4(CC3)CC4)nn2)c(F)c(N2CCC(F)(F)CC2)n1` [Example 63, N-(4-(4-(2-(4,4-difluoropiperidin-1-yl)-3-fluoro-6-methoxypyridin-4-yl)-1H-1,2,3-triazol-1-yl)-3-(6-azaspiro[2.5]octan-6-yl)phenyl)-2-hydroxyethane-1-sulfonamide], the IC50 in the assay on HT29 cells was 153 nM; in the assay on OVCAR3 cells, 108 nM; in assay [1] it was 437 nM.

For `Cc1cc(-c2cn(-c3ccc(NS(=O)(=O)CCO)cc3N3CCC4(CC3)CC4)nn2)cc(N2CCC(F)(F)CC2)n1` [Example 64, N-(4-(4-(2-(4,4-difluoropiperidin-1-yl)-6-methylpyridin-4-yl)-1H-1,2,3-triazol-1-yl)-3-(6-azaspiro[2.5]octan-6-yl)phenyl)-2-hydroxyethane-1-sulfonamide], the IC50 in the assay on HT29 cells came to 27 nM; in the assay on OVCAR3 cells it was 27 nM; in assay [1], 177 nM.

For the compound `Cc1cc(-c2cn(-c3ccc(NS(=O)(=O)CCO)cc3N3CCC4(CC3)CC4)nn2)c(F)c(N2CCC(F)(F)CC2)n1` [Example 65, N-(4-(4-(2-(4,4-difluoropiperidin-1-yl)-3-fluoro-6-methylpyridin-4-yl)-1H-1,2,3-triazol-1-yl)-3-(6-azaspiro[2.5]octan-6-yl)phenyl)-2-hydroxyethane-1-sulfonamide], the IC50 is 127 nM with HT29 cells, 116 nM in the assay with OVCAR3 cells and 383 nM in assay [1].

Consider `Cc1cc(-c2cn(-c3ccc(NS(=O)(=O)CCO)nc3N3CCC4(CC3)CC4)nn2)nc(N2CCC(F)(F)CC2)n1` [Example 66, N-(6-{6-azaspiro[2.5]octan-6-yl}-5-{4-[2-(4,4-difluoropiperidin-1-yl)-6-methylpyrimidin-4-yl]-1H-1,2,3-triazol-1-yl}pyridin-2-yl)-2-hydroxyethane-1-sulfonamide], for which the IC50 came out at 54 nM in the assay on HT29 cells, 52.7 nM with OVCAR3 cells and 62 nM in assay [1].

As for `Cc1cc(-c2cn(-c3cnc(NS(=O)(=O)CCO)cc3N3CCC4(CC3)CC4)nn2)nc(N2CCC(F)(F)CC2)n1` [Example 67, N-(4-{6-azaspiro[2.5]octan-6-yl}-5-{4-[2-(4,4-difluoropiperidin-1-yl)-6-methylpyrimidin-4-yl]-1H-1,2,3-triazol-1-yl}pyridin-2-yl)-2-hydroxyethane-1-sulfonamide], the IC50 in the assay on HT29 cells is 19 nM; with OVCAR3 cells, 25 nM; in assay [1], 12 nM.

As to `Cc1cc(-c2cn(-c3cnc(NS(=O)(=O)CCO)cc3N3CCC4(CC3)CC4)nn2)cc(N2CCC(F)(F)CC2)n1` [Example 68, N-(4-{6-azaspiro[2.5]octan-6-yl}-5-{4-[2-(4,4-difluoropiperidin-1-yl)-6-methylpyridin-4-yl]-1H-1,2,3-triazol-1-yl}pyridin-2-yl)-2-hydroxyethane-1-sulfonamide], the IC50 in the assay on HT29 cells amounted to 250 nM; in the assay with OVCAR3 cells it was 159 nM; in assay [1], 112 nM.

Turning to `Cc1cc(-c2nnn(-c3ccc(NS(=O)(=O)CCO)cc3N3CCC4(CC3)CC4)c2C)nc(N2CCC(F)(F)CC2)n1` [Example 69, N-(3-{6-azaspiro[2.5]octan-6-yl}-4-{4-[2-(4,4-difluoropiperidin-1-yl)-6-methylpyrimidin-4-yl]-5-methyl-1H-1,2,3-triazol-1-yl}phenyl)-2-hydroxyethane-1-sulfonamide], the IC50 in the assay with HT29 cells was over 3000 nM; with OVCAR3 cells, 1500 nM; in assay [1] it was over 3000 nM.

For `CC(C)(O)c1ccc(-c2cn(-c3ccc(NS(=O)(=O)CCO)cc3N3CCC4(CC3)CC4)nn2)nc1N1CCC(F)(F)CC1` [Example 70, N-(4-(4-(6-(4,4-difluoropiperidin-1-yl)-5-(2-hydroxypropan-2-yl)pyridin-2-yl)-1H-1,2,3-triazol-1-yl)-3-(6-azaspiro[2.5]octan-6-yl)phenyl)-2-hydroxyethanesulfonamide], the IC50 in the assay with HT29 cells came to 700 nM; in the assay with OVCAR3 cells it was 582 nM; in assay [1], 1230 nM.
